Data from the RepoRT retention time repository (doi:10.1021/acs.analchem.7b00925).

Assay: HILIC, Merck SeQuant ZIC-HILIC, 100 × 2.1 mm, 3.5 µm, 25 °C, 0.3 mL/min, estimated dead time 0.73 min; A: water + 0.1% formic acid, pH 3; B: acetonitrile + 0.1% formic acid, pH 3; gradient (min/%B) 0/95 1.5/95 13.5/40 15.5/40 29.7/25 33.5/25 34.5/95 41.5/95
Conditions: stereoisomer not certain

LC retention time [min] | SMILES
10.5 | NC(CCSCC(N)C(=O)O)C(=O)O (stereo not drawn) [Cystathionine]
8.16 | CC(=O)NC(Cc1cnc[nH]1)C(=O)O (stereo not drawn) [N,N-Acetylhistidine]
1.46 | O=C(O)CNC(=O)c1ccco1 [2-furoylglycine]
8.65 | CC(=O)NC(CCCN)C(=O)O (stereo not drawn) [N-Acetyl-ornithine]
6.1 | NC(Cc1ccc(O)c([N+](=O)[O-])c1)C(=O)O (stereo not drawn) [Nitrotyrosine]
5.95 | CC(CCC(=O)[O-])[N+](C)(C)C (stereo not drawn) [4-aminovaleric acid betaine]
12.5 | NCCCC(N)C(=O)O (stereo not drawn) [Ornithine]
9.29 | NCC(=O)NCC(=O)O [Glycyl-glycine]
8.61 | CNCC(O)c1ccc(O)c(O)c1 (stereo not drawn) [Adrenaline]
1.26 | O=C(O)Cc1c[nH]c2ccccc12 [3-Indoleacetic acid]
6.41 | CCCCC(N)C(=O)O (racemic) [DL-Norleucine]
8.56 | CC(=O)NCCCCN [N-acetylputrescine]
4.67 | O=C(O)Cc1ccccn1 [2-Pyridylacetic acid]
6.99 | O=c1ccn(C2OC(COP(=O)(O)O)C(O)C2O)c(=O)[nH]1 (stereo not drawn) [Uridine mono-phosphate]
6.41 | NC(C(=O)O)c1ccccc1 (stereo not drawn) [Phenylglycine]
8.89 | NC(=O)NCCCC(N)C(=O)O (stereo not drawn) [Citrulline]
4.31 | CC(=O)N[C@@H](CC(=O)O)C(=O)O [N-Acetyl-L-aspartic acid]
4.75 | CC(CCC(=O)NCCS(=O)(=O)O)C1CCC2C3C(O)CC4CC(O)CCC4(C)C3CC(O)C12C (stereo not drawn) [Taurocholic acid]
8.06 | CC(N)C(=O)O (stereo not drawn) [Alanine]
5.94 | O=C(O)Cc1cccnc1 [3-Pyridylacetic acid]
4.67 | O=C(O)c1cc(O)c(O)c(O)c1 [Gallic acid]
1.34 | O=C(O)CNC(=O)C=Cc1ccccc1 [N-Cinnamoylglycine]

LC retention time [min] | SMILES
6.57 | OCC(O)C(O)C(O)C(O)CO (stereo not drawn) [Mannitol]
6.82 | CC1(C)SC2C(NC(=O)C(N)c3ccc(O)cc3)C(=O)N2C1C(=O)O (stereo not drawn) [Amoxicillin]
5 | OCC1OC(O)C(O)C1O (stereo not drawn) [Ribose]
1.3 | Nc1ccc(C(=O)O)c(O)c1 [4-Aminosalicylic acid]
12 | Cn1cncc1CC(N)C(=O)O (stereo not drawn) [3-methylhistidine]
8.52 | NC(N)=NCC(=O)O [Glycocyamine]
7.58 | CCNC(=O)CC[C@H](N)C(=O)O [L-Theanine]
1.36 | O=C(O)CNC(=O)c1ccccc1 [Hippuric acid]
5.09 | CC(=O)NC(CCCNC(N)=O)C(=O)O (stereo not drawn) [Acetylcitrulline]
8.4 | O=C(O)C1CC(O)CN1C(=O)C1CCCN1 (stereo not drawn) [Proline-hydroxyproline]
6.24 | CC(=O)N[C@H]1C(O)O[C@H](CO)[C@@H](O)[C@@H]1O (stereo partly drawn) [N-Acetyl-D-glucosamine]
7.67 | CNCC(=O)O [Sarcosine]
1.39 | COc1cc(/C=C/C(=O)O)ccc1O [trans-Ferulic acid]
1.3 | CC(CCC(=O)O)C1CCC2C3C(O)CC4CC(O)CCC4(C)C3CCC12C (stereo not drawn) [Chenodeoxycholic acid]
11.3 | NC(=NCCCC(N)C(=O)O)NC(CC(=O)O)C(=O)O (stereo not drawn) [Argininosuccinic acid]
13.1 | NCCC(=O)NC(Cc1cnc[nH]1)C(=O)O (stereo not drawn) [Carnosine]
7.58 | NC(Cc1c[nH]c2ccc(O)cc12)C(=O)O (stereo not drawn) [5-hydroxytryptophan]
4.32 | O=C(O)CNC(=O)C1CCC(=O)N1 (stereo not drawn) [Pyroglutamylglycine]
7.66 | O=C(NCC(=O)N1CCCC1C(=O)O)C1CCCN1 (stereo not drawn) [Proline-glycine-proline]
4.23 | O=C(O)C=C(CC(=O)O)C(=O)O [cis-aconitate]
2.31 | CC(C)(CO)C(O)C(=O)NCCC(=O)O (stereo not drawn) [Pantothenic acid]
7.7 | O=C(O)Cn1ccnc1 [1-Imidazoleacetic acid]

Continued, compound first:

SMILES | LC retention time [min]
C[N+]1(C)CCCCC1C(=O)[O-] (stereo not drawn) [Homostachydrine] | 6.93
O=c1cc[nH]c(=S)[nH]1 [Thiouracil] | 1.93
CSCC1OC(n2cnc3c(N)ncnc32)C(O)C1O (stereo not drawn) [Methylthioadenosine] | 4.81
CN1CCCN=C1C=Cc1cccs1 [Pyrantel] | 2.3
O=c1[nH]cccc1O [2,3-Dihydroxypyridine] | 4.47
NCCS(=O)O [Hypotaurine] | 7.87
Cn1c(=O)c2c([nH]c(=O)n2C)n(C)c1=O [1,3,7-trimethyluric acid] | 1.87
NCCCCN=C(N)N [Agmatine] | 15.3
Nc1nc2c(ncn2C2OC(COP(=O)(O)O)C(O)C2O)c(=O)[nH]1 (stereo not drawn) [Guanosine mono-phosphate] | 8.15
O=S(=O)(O)CCN1CCOCC1 [MES] | 6.42
Nc1nc2c([nH]c(=O)n2C2OC(CO)C(O)C2O)c(=O)[nH]1 (stereo not drawn) [8-hydroxyguanosine] | 6.1
Nc1ccc(O)cc1 [4-Aminophenol] | 8.1
C[n+]1cccc(C(N)=O)c1 [1-Methylnicotinamide] | 8.28
CC(=O)c1cnccn1 [2-Acetylpyrazine] | 0.96
O=S(=O)(O)CCNC1CCCCC1 [CHES] | 5
O=S(=O)(O)CCN1CCN(CCO)CC1 [HEPES] | 10.7
OCCOCCOCCOCCOCCOCCO [Hexaethylene glycol] | 1.69

SMILES | LC retention time [min]
C[N+](C)(C)CCCCC(=O)[O-] [5-Aminovaleric acid betaine] | 6.01
O=C(O)c1ccncc1 [Isonicotinic acid] | 2.25
NCCc1ccc(O)cc1 [Tyramine] | 6.81
NC1C(O)OC(CO)C(O)C1O (stereo not drawn) [Glucosamine] | 10.5
CC(C(=O)[O-])[N+](C)(C)C (stereo not drawn) [Alanine betaine] | 7.32
Cn1c(=O)[nH]c2[nH]c(=O)[nH]c2c1=O [1-methyluric acid] | 4.66
CN1C(=O)CCC1c1cccnc1 (stereo not drawn) [Cotinine] | 5.16
CN(CC(=O)O)C(N)=NP(=O)(O)O [Phosphocreatine] | 7.7
Nc1ccc(C(=O)O)cc1 [p-Aminobenzoic acid] | 1.53
Nc1ccccc1C(=O)O [2-Aminobenzoic acid] | 1.24
C[n+]1cccc(C(=O)[O-])c1 [Trigonelline] | 7.26
NCCc1cnc[nH]1 [Histamine] | 14.4
OC1COC(O)C(O)C1O (stereo not drawn) [Xylose] | 6.03
Cn1cnc2[nH]c(=O)[nH]c(=O)c21 [7-methylxanthine] | 2.72
[NH3+]CCCCCC(=O)[O-] [Aminocaproate] | 7.15
CNCCc1cnc[nH]1 [Na-methylhistamine] | 15.2
Cc1ncc(CO)c(CN)c1O [Pyridoxamine] | 13.1
